Holding throughout (type): cell-based, human
For assay [1], the system named is NK cells. Description: Intracellular IFN-γ expression by NK cells in PBMC stimulated with mutants of KCL-22 cells, flow cytometry (Example 2). As to conditions: PBMC treated with ginsenoside, stimulated with equal number of mutants of KCL-22 cells, Brefeldin A; FIG. 2. On the procedure:
The 7 different kinds of ginsenosides discovered in Example 1 were treated and those ginsenosides which increased the expression level of the immune-stimulating factor (IFN-γ) by NK cells were selected (FIG. 2). In particular, the expression level of IFN-γ was measured as follows. That is, the PBMC samples isolated in Example 1 were treated with each ginsenoside, stimulated by treating with the equal number of target cells (mutants of KCL-22 cells), and then treated with Brefeldin A (GolgiPlug; BD Biosciences). Thereafter, a flow cytometry analysis was performed using fluochrome-conjugated anti-CD3 antibody and anti-CD56 antibody to identify NK cells present in PBMC, and then treated with Cytofix/Cytoperm (BD Biosicences) for perforation, and immunostained with fluochrome-conjugated anti-IFN-γ antibody to measure the intracellular level of IFN-γ(FIG. 2).
(A flow cytometer gives signals particle by particle.)

The subject of assay [2] is NK cells. The assay is described as follows: CD107a level on NK cells in PBMC stimulated with K562 target cells, flow cytometry (Example 1). As to conditions: PBMC (NK cell purity 95% or higher) treated with ginsenoside, then K562 target cells; FIG. 1. On the procedure:
To discover ginsenosides which can affect the cell-killing activity of NK cells, peripheral blood mononuclear cells (PBMC) separated from the blood were treated with 15 different kinds of (C-K, F2, PPD, Rb1, Rb2, Rc, Rd, Rg3, Rh2, F1, PPT, Re, Rg1, Rg2, and Rh1) ginsenosides, and then, the level of CD107a, which is a marker protein representing cell-killing activity and expressed on NK cells, was measured by flow cytometry (FIG. 1).
In particular, for the PBMC, those selected as follows were used. That is, the collected blood samples were transferred into Vacutainer Cell Preparation tubes (sodium heparin; BD Biosciences), centrifuged to recover a buffy coat, lymphocytes and monocyte band, and the recovered buffy coat was washed with PBS and applied to the human NK cell negative selection kit (Miltenyl Biotech) to isolate […].
Additionally, the CD107a level was measured as follows. […] Then, the NK cells were isolated by performing flow cytometry analysis using anti-CD3 antibody and anti-CD56 antibody, and the NK cells were immunostained using anti-CD107a antibody and the level of CD107a was measured.

For assay [3], the system named is NK cells. Description: CD107a level on primary NK cells incubated with mutants of KCL-22 cells (Example 3). As to conditions: NK cells isolated from PBMC, incubated with mutants of KCL-22 cells (Gleevec-resistant leukemia cells); DMSO control; FIG. 3. On the procedure: An attempt was made to select ginsenosides which induce the increase of the CD107a level on primary NK cells among the 4 different kinds of ginsenosides (Rg3, Rh2, F1, and Rg1) selected in Example 2.
Specifically, the NK cells isolated from the PBMC were activated by treating with the 4 different kinds of ginsenosides, then incubated with mutants of KCL-22 cells (i.e., Gleevec-resistant leukemia cells), and the level of CD107a on NK cells was measured and compared (FIG. 3). In particular, NK cells treated with DMSO, instead of ginsenosides, were used as a control group.

Assay [4] relates to NK cells. Description: Concentration-dependent change of CD107a level on NK cells (Example 4). The conditions noted are these: NK cells isolated from PBMC, 5 μM to 20 μM; DMSO control; FIGS. 4A and 4B. On the procedure:
NK cells isolated from PBMC were treated with ginsenoside F1 (which increases the selected CD107a level to the highest level) and Rg3 (which increases the selected CD107a level to the 2nd highest level), selected from Example 3, at various concentrations (5 μM to 20 μM), and the change in the CD107a level was measured (FIGS. 4A and 4B). In particular, NK cells treated with DMSO, instead of ginsenosides, were used as a control group.

In assay [5] the test system is Gleevec-resistant mutants of KCL-22 cells. Description: Cell-killing activity of NK cells against europium-labeled target cells (Example 5). The conditions noted are these: E:T ratios 0.625:1, 1.25:1, 2.5:1, 5:1; DMSO control; FIGS. 5A and 5B. On the procedure:
The NK cells isolated in Example 1 was treated with ginsenoside F1 or ginsenoside Rg3, and incubated with target cells (Gleevec-resistant mutants of KCL-22 cells) labeled with an europium fluorescent dye at various E:T ratios (the ratio between the number of NK cells:the number of target cells=0.625:1, 1.25:1, 2.5:1, or 5:1), and thereby breaking down the target cells with the NK cells activated by the ginsenoside, and the europium fluorescent dye labeled to the target cells was released as a reaction solution. Upon completion of the reaction, the level of the europium fluorescent dye contained in the reaction solution was measured, and the cell-killing activity of the NK cells was compared (FIGS. 5A and 5B). In particular, NK cells treated with DMSO, instead of ginsenosides, were used as control group.

Each structure is given as a SMILES string.

For the molecule `CC(C)=CCC[C@](C)(O)[C@H]1CC[C@]2(C)[C@@H]1[C@H](O)C[C@@H]1[C@@]3(C)CC[C@H](O[C@@H]4O[C@H](CO)[C@@H](O)[C@H](O)[C@H]4O)C(C)(C)[C@@H]3CC[C@]12C` [Rh2], in the assay with NK cells [1], the “expression level of IFN-γ by NK cells” value is recorded as “increased”. In the assay with NK cells [2], the “level of CD107a expression on NK cells” value is “increase the level of CD107a expression on NK cells”.
With `CC(C)=CCC[C@](C)(O[C@@H]1O[C@H](CO)[C@@H](O)[C@H](O)[C@H]1O)[C@H]1CC[C@]2(C)[C@@H]1[C@H](O)C[C@@H]1[C@@]3(C)CC[C@H](O[C@@H]4O[C@H](CO)[C@@H](O)[C@H](O)[C@H]4O)C(C)(C)[C@@H]3CC[C@]12C` [F2], the “level of CD107a expression on NK cells” value in the assay on NK cells [2] is on record as “increase the level of CD107a expression on NK cells”.
The same measure, in the same setting: then `CC(C)=CCC[C@](C)(O)[C@H]1CC[C@]2(C)[C@@H]1[C@H](O)C[C@@H]1[C@@]3(C)CC[C@H](O)C(C)(C)[C@@H]3[C@@H](O[C@@H]3O[C@H](CO)[C@@H](O)[C@H](O)[C@H]3O[C@@H]3O[C@@H](C)[C@H](O)[C@@H](O)[C@H]3O)C[C@]12C` [Rg2], with “increase the level of CD107a expression on NK cells”.
Consider `CC(C)=CCC[C@](C)(O[C@@H]1O[C@H](CO)[C@@H](O)[C@H](O)[C@H]1O)[C@H]1CC[C@]2(C)[C@@H]1[C@H](O)C[C@@H]1[C@@]3(C)CC[C@H](O)C(C)(C)[C@@H]3[C@@H](O[C@@H]3O[C@H](CO)[C@@H](O)[C@H](O)[C@H]3O)C[C@]12C` [Rg1], for which the “expression level of IFN-γ by NK cells” value with NK cells [1] is given as “increased”. In addition, the “level of CD107a expression on NK cells” value in the assay on NK cells [2] is “increase the level of CD107a expression on NK cells”.
In the case of `CC(C)=CCC[C@](C)(O)[C@H]1CC[C@]2(C)[C@@H]1[C@H](O)C[C@@H]1[C@@]3(C)CC[C@H](O[C@@H]4O[C@H](CO)[C@@H](O)[C@H](O)[C@H]4O[C@@H]4O[C@H](CO)[C@@H](O)[C@H](O)[C@H]4O)C(C)(C)[C@@H]3CC[C@]12C` [ginsenoside Rg3, 20(S)-protopanaxadiol-3-0-β-D-glucopyranosyl(1,2)-β-D-glucopyranoside], in the assay with NK cells [3], the “level of CD107a on primary NK cells (rank among the 4 ginsenosides)” value was determined as 2nd highest. In addition, the “expression level of IFN-γ by NK cells” value in the assay on NK cells [1] is listed as “increased”. Also, in the assay with NK cells [2], the “level of CD107a expression on NK cells” value was “increase the level of CD107a expression on NK cells”. Besides, the “change in the CD107a level on NK cells by concentration” value with NK cells [4] is recorded as “increase the expression levels of CD107a on NK cells in a concentration-dependent manner”. For the same molecule, in assay [5], the “cell-killing activity of NK cells (europium fluorescent dye release)” value is “promote the cell-killing activity of NK cells against mutants of KCL-22 cells”.
As for `CC(C)=CCC[C@](C)(O[C@@H]1O[C@H](CO[C@@H]2O[C@H](CO)[C@@H](O)[C@H](O)[C@H]2O)[C@@H](O)[C@H](O)[C@H]1O)[C@H]1CC[C@]2(C)[C@@H]1[C@H](O)C[C@@H]1[C@@]3(C)CC[C@H](O[C@@H]4O[C@H](CO)[C@@H](O)[C@H](O)[C@H]4O[C@@H]4O[C@H](CO)[C@@H](O)[C@H](O)[C@H]4O)C(C)(C)[C@@H]3CC[C@]12C` [Rb1], the “level of CD107a expression on NK cells” value in the assay on NK cells [2] is listed as “increase the level of CD107a expression on NK cells”.

The record behind these values is patent publication US10376530B2, “Pharmaceutical composition for preventing or treating gleevec-resistant leukemia containing ginsenoside F1 or ginsenoside Rg3 as an active ingredient” (INTELLIGENT SYNTHETIC BIOLOGY CENTER, priority 2015, dated 2019).
